{"source": "patent US20250057795A1", "about": "(priority 2023, published 2025)", "origin": "cited, not measured here", "key": {"[1]": {"settings": "compared with Levodopa; due to increased solubility"}, "GPR143 [2]": {"biological_target": "T1, GPR143 (Homo sapiens, UniProt P51810)", "T1 sequence (P51810 whole entry)": "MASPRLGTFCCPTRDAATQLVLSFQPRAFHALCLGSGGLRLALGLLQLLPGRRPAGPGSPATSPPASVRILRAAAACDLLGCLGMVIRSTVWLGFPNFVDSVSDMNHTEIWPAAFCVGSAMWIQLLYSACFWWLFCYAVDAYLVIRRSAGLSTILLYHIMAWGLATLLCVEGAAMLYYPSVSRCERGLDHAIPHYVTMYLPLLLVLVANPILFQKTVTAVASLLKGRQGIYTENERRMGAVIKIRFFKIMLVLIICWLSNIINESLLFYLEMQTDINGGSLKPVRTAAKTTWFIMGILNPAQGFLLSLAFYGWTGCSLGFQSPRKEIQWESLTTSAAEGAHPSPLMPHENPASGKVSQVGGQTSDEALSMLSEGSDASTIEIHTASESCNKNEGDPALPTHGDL"}, "GPR143 [3]": {"biological_target": "T1, GPR143", "settings": "retinal pigment epithelial cells"}, "GPR143 [4]": {"biological_target": "T1, GPR143", "settings": "same site as L-DOPA"}}, "note": "Like-named read-outs stand apart in the source and are kept apart here."}
{"smiles": "CCOC(=O)[C@@H](N)Cc1ccc(O)c(O)c1", "note": "[Etilevodopa]", "values": [{"measurement": "ocular penetration", "setting": "[1]", "value": "increased ocular penetration"}]}
{"smiles": "N[C@@H](Cc1ccc(O)c(O)c1)C(=O)O", "note": "[Levodopa]", "values": [{"measurement": "need for anti-VEGF injections", "setting": "GPR143 [2]; continued Levodopa therapy, compared to historical controls", "value": "decreased need for anti-VEGF injections"}, {"measurement": "vision", "setting": "GPR143 [2]; new onset nAMD, naive to anti-VEGF, 1 month", "value": "improved vision"}, {"measurement": "release / production of VEGF (and exosomes)", "setting": "GPR143 [3]", "value": "downregulates the production of VEGF"}, {"measurement": "release of PEDF", "setting": "GPR143 [3]", "value": "significantly upregulates"}, {"measurement": "release of PEDF", "setting": "GPR143 [3]; listed as L-DOPA", "value": "stimulated the release of PEDF"}]}
{"smiles": "COc1ccc2[nH]cc(CCNC(C)=O)c2c1", "note": "[Melatonin]", "values": [{"measurement": "water solubility", "value": "practically insoluble"}]}
{"smiles": "NCCc1ccc(O)c(O)c1", "note": "[dopamine]", "values": [{"measurement": "release / production of VEGF (and exosomes)", "setting": "GPR143 [3]", "value": "stimulated the release of VEGF and exosomes"}, {"measurement": "affinity for GPR143", "setting": "GPR143 [4]", "value": "near-equal affinity to L-DOPA"}]}
